The text below walks through data of patent US20260207615A1, “FLUOROPYRIDOPYRIMIDINE AND FLUOROQUINAZOLINE DERIVATIES AND METHODS OF USE THEREOF” (Frontier Medicines Corporation, priority 2022, published 2026).

A value given as a limit tells only on which side of the number the result lay.

In this assay the target is T1, KRAS G12C and cRAF interaction (Homo sapiens, UniProt P01116, C118S/C51S/C80L/G12C).
T1 construct: truncated version comprising amino acids 1-169
T1 sequence (P01116 1-169 isoform P01116-2 G12C/C51S/C80L/C118S): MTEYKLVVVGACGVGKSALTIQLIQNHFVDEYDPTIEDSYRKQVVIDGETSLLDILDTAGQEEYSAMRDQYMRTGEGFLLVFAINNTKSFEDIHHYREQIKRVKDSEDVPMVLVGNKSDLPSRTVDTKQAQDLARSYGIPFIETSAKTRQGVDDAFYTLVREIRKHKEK
Kind of assay: Inhibition of KRAS G12C and cRAF binding (AlphaScreen). Format: biochemical. The conditions noted are these: KRAS G12C (Cys-light, aa 1-169) preloaded with GMPPNP, cRaf RBD (aa 50-131), 2 hours incubation. Here is the method: The AlphaScreen technology was used to determine IC50s for compound inhibition of KRAS G12C (present as the Cys-light (C51S, C80L and C118S), truncated version comprising amino acids 1-169) and cRAF interaction. Compounds were diluted in 100% DMSO and each compound concentration was spotted at 200 nl/well onto low volume, white 384 well plates. The KRAS G12C contained a biotin-AviTag and the cRaf, as Ras-binding domain (amino acids 50-131, RBD), was GST-tagged. KRAS G12C was preloaded with the GTP analogue Guanosine 5′-[β,γ-imido]triphosphate (GMPPNP). The KRAS G12C was diluted in 25 mM Hepes, pH 7.4, 150 mM NaCl, 5 mM MgCl2, 0.01% TritonX-100 and 10 μM GMPPNP and added at 10 μl/well to compound-spotted plates resulting in a DMSO concentration of 2%. Plates were incubated for 2 hours. A mixture of RBD and the AlphaScreen streptavidin donor and glutathione acceptor beads diluted in 25 mM Hepes, pH 7.4, 150 mM NaCl, 5 mM MgCl2, 0.01% TritonX-100 and 2% DMSO was then added at 10 μl/well and incubated for 60-90 minutes before the samples were read for emission at 570 nm after excitation of the donor beads at 680 nm. All incubations were performed at room temperature. The final top compound concentration was 50 μM with 1:3 titrations for 10-point dose response curves. Final assay conditions were 0.5 nM KRAS G12C, 0.75 nM RBD and 5 μg/ml each of AlphaScreen donor and acceptor beads. IC50S were determined using nonlinear regression fit of [inhibitor] vs. response (4 parameters).
A counter assay was also set up to rule out inhibitors of the AlphaScreen technology itself. Compound plates were incubated for 2 hours as above with buffer only.
The AlphaScreen beads were added as above except biotin-AviTag-GST was substituted for the RBD. Samples were read and analyzed as above.
On to `C=CC(=O)N1CCN(c2nc(OC[C@@]34CCCN3C[C@H](F)C4)nc3c(F)c(-c4cccc5cccc(Cl)c45)ncc23)CC12COC2` [Example 17, 1-(8-(7-(8-chloronaphthalen-1-yl)-8-fluoro-2-(((2R,7aS)-2-fluorotetrahydro-1H-pyrrolizin-7a(5H)-yl)methoxy)pyrido[4,3-d]pyrimidin-4-yl)-2-oxa-5,8-diazaspiro[3.5]nonan-5-yl) prop-2-en-1-one], for which the concentration for half-maximal inhibition (IC50) was 10 to 100 nM.

Regarding `C=CC(=O)N1C(C)CN(c2nc(OC[C@@]34CCCN3C[C@H](F)C4)nc3c(F)c(-c4cccc5cccc(Cl)c45)ncc23)CC12COC2` (stereo partly drawn) [Example 53, 1-(8-(7-(8-chloronaphthalen-1-yl)-8-fluoro-2-(((2R,7aS)-2-fluorotetrahydro-1H-pyrrolizin-7a(5H)-yl)methoxy)pyrido[4,3-d]pyrimidin-4-yl)-6-methyl-2-oxa-5,8-diazaspiro[3.5]nonan-5-yl) prop-2-en-1-one], the concentration for half-maximal inhibition (IC50) is 10 to 100 nM.

`C=CC(=O)N1CCN(c2nc(OC[C@@]34CCCN3C[C@H](F)C4)nc3c(F)c(-c4ccc(F)c5sc(N)nc45)c(Cl)cc23)C[C@]12CCOC2` [Example 87]: the IC50 was at least 500 nM.

For `C#Cc1c(F)ccc2cccc(-c3ncc4c(N5CCN(C(=O)/C=C/CN6C[C@@H]7C[C@H]6CO7)C6(COC6)C5)nc(OC[C@@]56CCCN5C[C@H](F)C6)nc4c3F)c12` [Example 42, (E)-4-((1S,4S)-2-oxa-5-azabicyclo[2.2.1]heptan-5-yl)-1-(8-(7-(8-ethynyl-7-fluoronaphthalen-1-yl)-8-fluoro-2-(((2R,7aS)-2-fluorotetrahydro-1H-pyrrolizin-7a(5H)-yl)methoxy)pyrido[4,3-d]pyrimidin-4-yl)-2-oxa-5,8-diazaspiro[3.5]nonan-5-yl) but-2-en-1-one], the IC50 is under 10 nM.

Compound `O=C(/C=C/CN1[C@@H]2CC[C@H]1COC2)N1CCN(c2nc(OC[C@@]34CCCN3C[C@H](F)C4)nc3c(F)c(-c4cccc5ccc(F)c(Cl)c45)ncc23)CC12COC2` [Example 23, (E)-4-((1R,5S)-3-oxa-8-azabicyclo[3.2.1]octan-8-yl)-1-(8-(7-(8-chloro-7-fluoronaphthalen-1-yl)-8-fluoro-2-(((2R,7aS)-2-fluorotetrahydro-1H-pyrrolizin-7a(5H)-yl)methoxy)pyrido[4,3-d]pyrimidin-4-yl)-2-oxa-5,8-diazaspiro[3.5]nonan-5-yl) but-2-en-1-one] gave a concentration for half-maximal inhibition (IC50) of under 10 nM.

As to `O=C(/C=C/CN1C[C@H]2C[C@@H]1CO2)N1CCN(c2nc(OC[C@@]34CCCN3C[C@H](F)C4)nc3c(F)c(-c4cccc(Cl)c4C(F)(F)F)ncc23)CC12COC2` [Example 68, (E)-4-((1R,4R)-2-oxa-5-azabicyclo[2.2.1]heptan-5-yl)-1-(8-(7-(3-chloro-2-(trifluoromethyl)phenyl)-8-fluoro-2-(((2R,7aS)-2-fluorotetrahydro-1H-pyrrolizin-7a(5H)-yl)methoxy)pyrido[4,3-d]pyrimidin-4-yl)-2-oxa-5,8-diazaspiro[3.5]nonan-5-yl) but-2-en-1-one], the IC50 is under 10 nM.

For `CN(C/C=C/C(=O)N1CCN(c2nc(OC[C@@]34CCCN3C[C@H](F)C4)nc3c(F)c(-c4cccc5cccc(Cl)c45)ncc23)CC12COC2)CC1COC1` [Example 3, (E)-1-(8-(7-(8-chloronaphthalen-1-yl)-8-fluoro-2-(((2R,7aS)-2-fluorotetrahydro-1H-pyrrolizin-7a(5H)-yl)methoxy)pyrido[4,3-d]pyrimidin-4-yl)-2-oxa-5,8-diazaspiro[3.5]nonan-5-yl)-4-(methyl(oxetan-3-ylmethyl)amino)but-2-en-1-one], the IC50 lay in the range of 10 to 100 nM.

Turning to `Cc1cc(/C=C/C(=O)N2CCN(c3nc(OC[C@@]45CCCN4C[C@H](F)C5)nc4c(F)c(-c5cccc(Cl)c5C5CC5)ncc34)CC23COC3)nc(C)n1` [Example 28, (E)-1-(8-(7-(3-chloro-2-cyclopropylphenyl)-8-fluoro-2-(((2R,7aS)-2-fluorotetrahydro-1H-pyrrolizin-7a(5H)-yl)methoxy)pyrido[4,3-d]pyrimidin-4-yl)-2-oxa-5,8-diazaspiro[3.5]nonan-5-yl)-3-(2,6-dimethylpyrimidin-4-yl) prop-2-en-1-one], the IC50 is at least 500 nM.

In turn, `C#Cc1c(F)ccc2cccc(-c3ncc4c(N5CCN(C(=O)C=C)C6(COC6)C5)nc(OC[C@@]56CCCN5C[C@H](F)C6)nc4c3F)c12` [Example 50, 1-(8-(7-(8-ethynyl-7-fluoronaphthalen-1-yl)-8-fluoro-2-(((2R,7aS)-2-fluorotetrahydro-1H-pyrrolizin-7a(5H)-yl)methoxy)pyrido[4,3-d]pyrimidin-4-yl)-2-oxa-5,8-diazaspiro[3.5]nonan-5-yl) prop-2-en-1-one] yielded an IC50 of under 10 nM.

Regarding `CN1CC[C@@H]1/C=C/C(=O)N1CCN(c2nc(OC[C@@]34CCCN3C[C@H](F)C4)nc3c(F)c(-c4cccc(Cl)c4C(F)(F)F)ncc23)CC12COC2` [Example 76], the concentration for half-maximal inhibition (IC50) is at least 500 nM.

For `Cc1nccc(/C=C(\F)C(=O)N2CCN(c3nc(OC[C@@]45CCCN4C[C@H](F)C5)nc4c(F)c(-c5cccc6cccc(Cl)c56)ncc34)CC23COC3)n1` [Example 61], the IC50 was at least 500 nM.

With `Cc1nccc(/C=C/C(=O)N2CCN(c3nc(OCC45CCCN4CCC5)nc4c(F)c(-c5cccc6ccc(F)c(F)c56)ncc34)CC23COC3)n1` [Example 10, (E)-1-(8-(7-(7,8-difluoronaphthalen-1-yl)-8-fluoro-2-((tetrahydro-1H-pyrrolizin-7a(5H)-yl)methoxy)pyrido[4,3-d]pyrimidin-4-yl)-2-oxa-5,8-diazaspiro[3.5]nonan-5-yl)-3-(2-methylpyrimidin-4-yl) prop-2-en-1-one], the IC50 was in the range of 100 to 500 nM.

As to `C#Cc1c(F)ccc2cccc(-c3ncc4c(N5CCN(C(=O)/C=C/CN6C[C@H]7C[C@@H]6CO7)C6(COC6)C5)nc(OC[C@@]56CCCN5C[C@H](F)C6)nc4c3F)c12` [Example 46, (E)-4-((1R,4R)-2-oxa-5-azabicyclo[2.2.1]heptan-5-yl)-1-(8-(7-(8-ethynyl-7-fluoronaphthalen-1-yl)-8-fluoro-2-(((2R,7aS)-2-fluorotetrahydro-1H-pyrrolizin-7a(5H)-yl)methoxy)pyrido[4,3-d]pyrimidin-4-yl)-2-oxa-5,8-diazaspiro[3.5]nonan-5-yl) but-2-en-1-one], the concentration for half-maximal inhibition (IC50) was under 10 nM.

`C=CC(=O)N1CCN(c2nc(OC[C@@]34CCCN3C[C@H](F)C4)nc3c(F)c(-c4cccc5ccc(F)c(F)c45)ncc23)C[C@]12CCOC2` [Example 81] displayed a half-maximal inhibitory concentration (IC50) of at least 500 nM.

As for `C#Cc1c(F)ccc2cccc(-c3ncc4c(N5CCN(C(=O)/C=C/CN6[C@@H]7CC[C@H]6COC7)C6(COC6)C5)nc(OC[C@@]56CCCN5C[C@H](F)C6)nc4c3F)c12` [Example 34, (E)-4-((1R,5S)-3-oxa-8-azabicyclo[3.2.1]octan-8-yl)-1-(8-(7-(8-ethynyl-7-fluoronaphthalen-1-yl)-8-fluoro-2-(((2R,7aS)-2-fluorotetrahydro-1H-pyrrolizin-7a(5H)-yl)methoxy)pyrido[4,3-d]pyrimidin-4-yl)-2-oxa-5,8-diazaspiro[3.5]nonan-5-yl) but-2-en-1-one], the IC50 is under 10 nM.

`O=C(/C=C/CN1[C@@H]2CC[C@H]1COC2)N1CCN(c2nc(OC[C@@]34CCCN3C[C@H](F)C4)nc3c(F)c(-c4cccc5ccc(F)c(F)c45)ncc23)CC12COC2` [Example 21, (E)-4-((1R,5S)-3-oxa-8-azabicyclo[3.2.1]octan-8-yl)-1-(8-(7-(7,8-difluoronaphthalen-1-yl)-8-fluoro-2-(((2R,7aS)-2-fluorotetrahydro-1H-pyrrolizin-7a(5H)-yl)methoxy)pyrido[4,3-d]pyrimidin-4-yl)-2-oxa-5,8-diazaspiro[3.5]nonan-5-yl) but-2-en-1-one]: the IC50 is under 10 nM.

Consider `C=CC(=O)N1CCN(c2nc(OC[C@@]34CCCN3C[C@H](F)C4)nc3c(F)c(-c4c(C)cc(F)c5[nH]ncc45)ncc23)CC12COC2` [Example 52, 1-(8-(8-fluoro-7-(7-fluoro-5-methyl-1H-indazol-4-yl)-2-(((2R,7aS)-2-fluorotetrahydro-1H-pyrrolizin-7a(5H)-yl)methoxy)pyrido[4,3-d]pyrimidin-4-yl)-2-oxa-5,8-diazaspiro[3.5]nonan-5-yl) prop-2-en-1-one], for which the IC50 is at least 500 nM.

`Cc1nccc(/C=C/C(=O)N2CCN(c3nc(OCC45CCCN4CCC5)nc4c(F)c(-c5cccc6cccc(Cl)c56)ncc34)CC23COC3)n1` [Example 7, (E)-1-(8-(7-(8-chloronaphthalen-1-yl)-8-fluoro-2-((tetrahydro-1H-pyrrolizin-7a(5H)-yl)methoxy)pyrido[4,3-d]pyrimidin-4-yl)-2-oxa-5,8-diazaspiro[3.5]nonan-5-yl)-3-(2-methylpyrimidin-4-yl) prop-2-en-1-one] had a concentration for half-maximal inhibition (IC50) of 100 to 500 nM.
